Where two headings read alike, the source gives them in different places. Values belong to the molecule of their own block, whether it stands above or below them.
Experiments:
[1] = tested on: OVA-specific IgE; test: OVA-specific IgE in plasma of OVA-induced asthmatic mice (ELISA); type: in vivo; settings: Mus musculus, 48 hours after last challenge, 30 mg/ml, vs OVA-control
Experimental: (§1) Groups of mice (n=5-6) were studied; they received the following treatment: (1) sham-sensitization plus challenge with phosphate-buffered saline (PBS; ipNeb); (2) sensitization plus challenge with OVA (ovalbumin: Sigma A5503; Sigma, St. Louis, Mo.) (ipNeb); (3) sensitization with OVA (ip) plus challenge with OVA (Neb) and samples (tiarellic acid or zileuton, po). Briefly, mice were sensitized with intraperitoneal injection of 20 μg OVA, which was emulsified with 2 mg of aluminum hydroxide in 100 μl of PBS buffer (pH 7.4) on days 0 and 11. The mice were challenged through the airways with OVA (1% in PBS) for 20 min using an ultrasonic nubuilizer (NE-U12; Omron Corp., Tokyo, Japan) on days 19, 20, 21 and 25 after the initial sensitization. […]
48 hours after the last challenge, the mice were sacrificed with an overdose of pentobarbital (Sigma P3761), and a tracheotomy was performed. […] The amount of IL-4, IL-5 and IL-13 in BALF was measured by a specific mouse ELISA kit (R&D Systems; Minneapolis, Minn.) according to the manufacturer's instructions. […]
Plasma was obtained by cardiac puncture after the tracheotomy. […] IgE levels in each sample were measured the optical density readings at 450 nm, and OVA-specific IgE concentrations were calculated from a standard curve, which was generated in case recombinant IgE (5-2,000 ng/ml) was used.

[2] = tested on: HL-60 cells; settings: human, 4 h
Experimental: Promyelotic HL-60 cells (HL-18103, 5×10^5 cells/ml) were seeded on 96-well plates under NGF-free condition. […] 4 hours later, MTT was removed and 100 μl of DMSO was dropped into each well to dissolve crystals. UV absorbance was measured by microplate reader (BIO-RAD, U.S.A.) at 570 nm to calculate the cell viability.

[3] = tested on: IL-5; test: IL-5 level in BALF of OVA-induced asthmatic mice (ELISA); type: in vivo; settings: 30 mg/ml; for IL-5: 48 hours after last challenge; for inhibition at 30000 µg/mL: Mus musculus, vs OVA-control
Experimental: (§2) Groups of mice (n=5-6) were studied; they received the following treatment: (1) sham-sensitization plus challenge with phosphate-buffered saline (PBS; ipNeb); (2) sensitization plus challenge with OVA (ovalbumin: Sigma A5503; Sigma, St. Louis, Mo.) (ipNeb); (3) sensitization with OVA (ip) plus challenge with OVA (Neb) and samples (tiarellic acid or zileuton, po). Briefly, mice were sensitized with intraperitoneal injection of 20 μg OVA, which was emulsified with 2 mg of aluminum hydroxide in 100 μl of PBS buffer (pH 7.4) on days 0 and 11. The mice were challenged through the airways with OVA (1% in PBS) for 20 min using an ultrasonic nubuilizer (NE-U12; Omron Corp., Tokyo, Japan) on days 19, 20, 21 and 25 after the initial sensitization. The mice were sacrificed 48 hours after the last challenge (day 27) to determine the suppressive effect of extract of T. polyphylla and tiarellic acid on the airways of allergic asthma.
(§3) 48 hours after the last challenge, the mice were sacrificed with an overdose of pentobarbital (Sigma P3761), and a tracheotomy was performed. After ice-cold PBS (0.5 ml) was instilled into the lungs, bronchoalveolar lavage fluid (BALF) was obtained by aspiration three times (total 1.5 ml) via tracheal cannulation. BALF was centrifuged and supernatants were collected and stored at −70° C. before use. The amount of IL-4, IL-5 and IL-13 in BALF was measured by a specific mouse ELISA kit (R&D Systems; Minneapolis, Minn.) according to the manufacturer's instructions. The detection limit of the assays was 250 pg/ml.
(§4) To determine the effect of extract of T. polyphylla and tiarellic acid on the cytokine release in the OVA-induced asthmatic mice, 48 hours after the last challenge, the levels of cytokines (IL-4, IL-5 and IL-13) in BALF were measured by using ELISA method.

[4] = tested on: IL-4; test: IL-4 level in BALF of OVA-induced asthmatic mice (ELISA); type: in vivo; settings: 30 mg/ml; for IL-4: 48 hours after last challenge; for inhibition at 30000 µg/mL: Mus musculus, vs OVA-control
Experimental: as §2, §3, §4

[5] = tested on: ICR rat; test: Carageenan-induced rat-paw edema; type: in vivo; settings: for The thickness ratio of ankle (%) / inhibition at 50 mg/kg: 50 mg/kg; for inhibition at 50 mg/kg: Rattus norvegicus, paw edema
Experimental: The inhibiting activity of the extract of T. polyphylla and […] prepared from the above Examples on the edema formation in ICR rat was determined as follows. The mice were divided into three groups consisting of 6 rats for each group, i.e., T1 treated with only solvent as a negative control group, T2 treated with 50 mg/kg of the extract of T. polyphylla, T3 treated with 50 mg/kg of aspirin respectively. 1 hour after the treatment, 1% […] solution was injected into inner rat ankle to induce edema and the thickness of ankle was measured by Vernier's caliper to determine the degree of the edema. The determined thickness was calculated by following Math Fig. 1. The thickness ratio of ankle(%)=[(maximum thickness of rat paw edema)-(the thickness of pre-treated rat paw edema)/(the thickness of pre-treated rat paw edema)]×100 MathFigure 1

[6] = tested on: OVA-induced mice; test: OVA-induced inflammation in lung tissue (H&E histology, inflammation score); type: in vivo
Experimental: as §1, with “11.” for “11. The mice were challenged through the airways with OVA (1% in PBS) for 20 min using an ultrasonic nubuilizer (NE-U12; Omron Corp., Tokyo, Japan) on days 19, 20, 21 and 25 after the initial sensitization.”
The lung tissue was fixed for 24 hours on 10% neutral-buffered formalin. […] The degree of cell infiltration in the airway was scored in a double-blind test performed by two independent investigators (Myou S et al., J. Exp. Med., 198, pp 1573-1582, 2003). The peri-bronchiole and peri-vascular inflammation was evaluated by specific standard, i.e., scoring of 0-3, 0, no cells; 1, a few cells; 2, a ring of cells 1 to 5 cell-layer deep; 3, a thick ring of cells more than 5 cell-layer deep. To evaluate the suppressive effect of T. polyphylla extract and tiarellic acid on the leukocyte infiltration, the degree of inflammation was scored by quantitative analysis in lung tissues 48 hours after the last challenge (See FIG. 2).

[7] = tested on: IL-13; test: IL-13 level in BALF of OVA-induced asthmatic mice (ELISA); type: in vivo; settings: 30 mg/ml; for IL-13: 48 hours after last challenge; for inhibition at 30000 µg/mL: Mus musculus, vs OVA-control
Experimental: as §2, §3, §4

[8] = tested on: LTC4 release; test: LTC4 release from SCF-stimulated bone marrow-derived mast cells (BMMC), enzyme immunoassay; type: cell-based, Balb/c mice; settings: Mus musculus, SCF 100 ng/ml stimulation, read-out: LTC4 release inhibition (IC50)
Experimental: BMMC were obtained from male Balb/c mice and cultured for up to 4 weeks in 50% enriched medium (RPMI containing 2 mM L-glutamine, 25 mM HEPES buffer, 2 mg/ml sodium bicarbonate, 100 units/ml penicillin G, 100 μg/ml streptomycin sulfate, 0.25 μg/ml amphotericin B) supplemented with 10% fetal bovine serum with IL-3 (Sigma I4144, 2 ng/ml) (Murakami M et al., J. Bio. Chem., 39, pp 22653-22656, 1995). 3 weeks after the culture, more than 98% of BMMC was found in the cells as assessed by staining method with toluidine blue.
BMMC were suspended in the enriched medium at the cell density of 1×10^6 cells/ml, and were then incubated in a humidified 5% CO2 incubator with or without sample in DMSO (final DMSO concentration was less than 0.5%) for 30 min at 37° C. After the stimulation with stem cell factor (SCF, Sigma S9915, 100 ng/ml) for 20 min, the LTC4 release in supernatants was measured by an enzyme immunoassay kit (Cayman Chemical, Ann Arbor, Mich., U.S.A.) according to the manufacturer's instructions. All the experiments were carried out in triplicate and the inhibition of LTC4 release was determined by calculating % reduction of LTC4 release from the control (Lee S H et al., Biol. Pharm. Bull., 27, pp 786-788, 2004). […]

[9] = tested on: OVA-induced asthmatic mice; test: Airway hyperresponsiveness (AHR), whole-body plethysmography, OVA-induced asthmatic mice; type: in vivo; settings: for Penh value: tiarellic acid and zileuton 30 mg/ml, po; for Penh value / AHR compared with OVA-treated group: OVA-challenged mice, in words
Experimental: as §2, with “([…]” for “(tiarellic acid”, “tiarellic acid” left out, “asthma. 24 hours after the final aerosol challenge AHR was measured by using a whole-body plethysmography (OCP3000; Allmedicus, Korea)(Hamelmann E et al., Am J Respir Crit. Care Med., 156, pp 766-775, 1997). […] Bronchoconstriction was recorded for additional 5 mins at each concentration. The highest Penh value of each sample was obtained during each methacholine challenge, and expressed as a percentage of a basal Penh value in response to control (PBS) challenge.” for “asthma.”

SMILES: C=C(C)[C@@H]1CC[C@]2(C)CC[C@]3(C(=O)O)C(CCC4[C@@]5(C)CC[C@H](O)[C@@](C)(CO)C5CC[C@]43C)C12 (some centres unmarked) [Tiarellic acid, tiarellic acid]
inhibition at 30000 µg/mL [1]: 48.8%
Cell viability (%) ([2]; 50 μM): 100%
Cell viability (%) ([2]; 100 μM): 102%
IL-5 [3]: 81.9 ± 41.4 pg/mL
inhibition at 30000 µg/mL [3]: 54.6 ± 23%
IL-4 [4]: 33.8 ± 14.3 pg/mL
inhibition at 30000 µg/mL [4]: 90.5 ± 4%
inhibition effect on rat paw edema ([5]; in words): potent inhibition effect
infiltration of eosinophil-rich leukocytes ([6]; H&E staining of lung tissues, compared with OVA-treated mice): significantly attenuated
suppressive effect on the inflammation in the lung tissues ([6]; OVA-induced mice, 48 hours after last challenge): most potent suppressive effect
IL-13 [7]: 81.7 ± 40.9 pg/mL
inhibition at 30000 µg/mL [7]: 43.7 ± 28.2%
IC50 [8]: 2490 nM
Penh value ([9]; Metacholine 0 mg/ml): 0.46 ± 0.08
Penh value ([9]; Metacholine 5 mg/ml): 0.96 ± 0.45
Penh value ([9]; Metacholine 10 mg/ml): 1.54 ± 0.74
Penh value ([9]; Metacholine 20 mg/ml): 2.15 ± 0.52
Penh value / AHR compared with OVA-treated group [9]: significantly reduced

SMILES: CC(=O)Oc1ccccc1C(=O)O [aspirin]
The thickness ratio of ankle (%) ([5]; 1 hr): 139.3 ± 40.6%
The thickness ratio of ankle (%) ([5]; 2 hr): 170.4 ± 34.5%
The thickness ratio of ankle (%) ([5]; 3 hr): 180.6 ± 28.6%
The thickness ratio of ankle (%) ([5]; 4 hr): 196.9 ± 15.4%
The thickness ratio of ankle (%) ([5]; 5 hr): 198.5 ± 12.6%
inhibition at 50 mg/kg ([5]; 1 hr): -16.8 ± 34%
inhibition at 50 mg/kg ([5]; 2 hr): -7.8 ± 21.8%
inhibition at 50 mg/kg ([5]; 3 hr): 7.3 ± 14.7%
inhibition at 50 mg/kg ([5]; 4 hr): 4.3 ± 7.5%
inhibition at 50 mg/kg ([5]; 5 hr): 1.5 ± 6.3%

IC50 [8]: 110 nM
SMILES: CC(c1cc2ccccc2s1)N(O)C(N)=O (centres unmarked) [zileuton]
inhibition at 30000 µg/mL [1]: 45.8%
IL-5 [3]: 157.8 ± 41.3 pg/mL
inhibition at 30000 µg/mL [3]: 12.5%
IL-4 [4]: 289.5 ± 59.0 pg/mL
inhibition at 30000 µg/mL [4]: 18.7%
IL-13 [7]: 130.1 ± 16.8 pg/mL
inhibition at 30000 µg/mL [7]: 10.3%
Penh value ([9]; Metacholine 0 mg/ml): 0.55 ± 0.14
Penh value ([9]; Metacholine 5 mg/ml): 1.17 ± 0.59
Penh value ([9]; Metacholine 10 mg/ml): 1.97 ± 0.83
Penh value ([9]; Metacholine 20 mg/ml): 2.49 ± 0.90
Penh value / AHR compared with OVA-treated group [9]: showed a decrease of AHR but less than tiarellic acid

Source: US7763286B2, “Composition comprising an extract of Tiarella polyphylla and tiarellic acid isolated therefrom having antiinflammatory, antiallergic and antiasthmatic activity” (Korea Research Institute of Bioscience and Biotechnology, priority 2005, dated 2010)
